Reference: the supplement of paper PMC13207355
Where a name gives a salt, the structure may show the parent alone.

Columns and labels:
Conditions in all cases: exposure time: 72 h
E13 [1] = patient-derived glioblastoma stem cells of classical subtype; assay: surviving fraction (nuclei count normalised to DMSO); higher = more cells surviving (less toxic)
E21 [2] = patient-derived glioblastoma stem cells of mesenchymal subtype; assay: as above
E28 [3] = patient-derived glioblastoma stem cells of classical subtype; assay: as above
E31 [4] = patient-derived glioblastoma stem cells of proneural subtype; assay: as above
E34 [5] = patient-derived glioblastoma stem cells of proneural subtype; assay: as above
E57 [6] = patient-derived glioblastoma stem cells of mesenchymal subtype; assay: as above
FT3469 [7] = normal neural stem cell line; assay: as above
E13 [8] = assay: phenotypic distance (Euclidean, principal components) from DMSO controls (arbitrary units); higher = stronger morphological change
E21 [9] = assay: as above
E28 [10] = assay: as above
E31 [11] = assay: as above
E34 [12] = assay: as above
E57 [13] = assay: as above
FT3469 [14] = assay: as above
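Wherever phenotypic distance (Euclidean, principal components) from DMSO controls is given: cell Painting imaging in 384-well plates, CellProfiler features reduced to at least 20 principal components, Euclidean distance versus same-plate DMSO vehicle wells (0.1% v/v), median over six images per well.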
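Wherever surviving fraction (nuclei count normalised to DMSO) is given: nuclei counted by high-content imaging of Hoechst-stained cells in laminin-coated 384-well plates, relative to 0.1% DMSO vehicle wells, with staurosporine as cell-death control.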

CSc1ccc2c(c1)N(CCC1CCCCN1C)c1ccccc1S2 (stereo not drawn) [Thioridazine hydrochloride]
Conditions | phenotypic distance | surviving fraction
E13 [1], 4.1 nM | – | 0.922
E13 [1], 12.3 nM | – | 0.886
E13 [1], 37 nM | – | 0.934
E13 [1], 111.1 nM | – | 0.929
E13 [1], 333.3 nM | – | 0.939
E13 [1], 1000 nM | – | 0.93
E13 [1], 3000 nM | – | 0.861
E13 [8], 4.1 nM | 0.45 | –
E13 [8], 12.3 nM | 0.608 | –
E13 [8], 37 nM | 0.775 | –
E13 [8], 111.1 nM | 3.1 | –
E13 [8], 333.3 nM | 0.477 | –
E13 [8], 1000 nM | 0.686 | –
E13 [8], 3000 nM | 1.2 | –
E21 [2], 4.1 nM | – | 0.936
E21 [2], 12.3 nM | – | 0.936
E21 [2], 37 nM | – | 0.946
E21 [2], 111.1 nM | – | 1
E21 [2], 333.3 nM | – | 0.935
E21 [2], 1000 nM | – | 0.952
E21 [2], 3000 nM | – | 1.02
E21 [9], 4.1 nM | 1.5 | –
E21 [9], 12.3 nM | 0.757 | –
E21 [9], 37 nM | 0.366 | –
E21 [9], 111.1 nM | 0.452 | –
E21 [9], 333.3 nM | 0.631 | –
E21 [9], 1000 nM | 0.422 | –
E21 [9], 3000 nM | 0.911 | –
E28 [3], 4.1 nM | – | 1.06
E28 [3], 12.3 nM | – | 1.05
E28 [3], 37 nM | – | 1.01
E28 [3], 111.1 nM | – | 1.06
E28 [3], 333.3 nM | – | 1.14
E28 [3], 1000 nM | – | 0.893
E28 [3], 3000 nM | – | 1.05
E28 [10], 4.1 nM | 1.44 | –
E28 [10], 12.3 nM | 0.64 | –
E28 [10], 37 nM | 0.64 | –
E28 [10], 111.1 nM | 0.832 | –
E28 [10], 333.3 nM | 0.524 | –
E28 [10], 1000 nM | 0.717 | –
E28 [10], 3000 nM | 0.589 | –
E31 [4], 4.1 nM | – | 0.911
E31 [4], 12.3 nM | – | 0.899
E31 [4], 37 nM | – | 1.03
E31 [4], 111.1 nM | – | 0.762
E31 [4], 333.3 nM | – | 1.01
E31 [4], 1000 nM | – | 0.88
E31 [4], 3000 nM | – | 0.874
E31 [11], 4.1 nM | 1.05 | –
E31 [11], 12.3 nM | 0.458 | –
E31 [11], 37 nM | 0.506 | –
E31 [11], 111.1 nM | 0.946 | –
E31 [11], 333.3 nM | 0.547 | –
E31 [11], 1000 nM | 0.532 | –
E31 [11], 3000 nM | 1.19 | –
E34 [5], 4.1 nM | – | 0.994
E34 [5], 12.3 nM | – | 0.901
E34 [5], 37 nM | – | 0.957
E34 [5], 111.1 nM | – | 0.923
E34 [5], 333.3 nM | – | 0.896
E34 [5], 1000 nM | – | 0.974
E34 [5], 3000 nM | – | 0.91
E34 [12], 4.1 nM | 1.83 | –
E34 [12], 12.3 nM | 0.749 | –
E34 [12], 37 nM | 0.609 | –
E34 [12], 111.1 nM | 0.331 | –
E34 [12], 333.3 nM | 0.663 | –
E34 [12], 1000 nM | 0.609 | –
E34 [12], 3000 nM | 0.89 | –
E57 [6], 4.1 nM | – | 0.993
E57 [6], 12.3 nM | – | 0.914
E57 [6], 37 nM | – | 0.948
E57 [6], 111.1 nM | – | 0.926
E57 [6], 333.3 nM | – | 0.952
E57 [6], 1000 nM | – | 0.889
E57 [6], 3000 nM | – | 1.2
E57 [13], 4.1 nM | 1.05 | –
E57 [13], 12.3 nM | 0.805 | –
E57 [13], 37 nM | 0.596 | –
E57 [13], 111.1 nM | 0.728 | –
E57 [13], 333.3 nM | 0.352 | –
E57 [13], 1000 nM | 0.966 | –
E57 [13], 3000 nM | 0.872 | –
FT3469 [7], 4.1 nM | – | 1.11
FT3469 [7], 12.3 nM | – | 0.948
FT3469 [7], 37 nM | – | 1.02
FT3469 [7], 111.1 nM | – | 0.934
FT3469 [7], 333.3 nM | – | 1
FT3469 [7], 1000 nM | – | 1.06
FT3469 [7], 3000 nM | – | 0.997
FT3469 [14], 4.1 nM | 1.76 | –
FT3469 [14], 12.3 nM | 1.1 | –
FT3469 [14], 37 nM | 0.901 | –
FT3469 [14], 111.1 nM | 0.672 | –
FT3469 [14], 333.3 nM | 1.85 | –
FT3469 [14], 1000 nM | 0.516 | –
FT3469 [14], 3000 nM | 0.354 | –
